Read-outs that look alike come from different tables or passages of the source.
Assays:
Format in all cases: cell-based, yeast
cytokinin receptor AHK2Δ = molecular target: T1, cytokinin receptor AHK2Δ (Arabidopsis thaliana, UniProt Q9C5U2); design: added initiator methionine (ATG added at the 5' end) (N); expressed in transfected cells; host or cells: yeast strain TM182 carrying plasmid p415CYC-AHK2Δ (pHM-1 backbone, CYC1 promoter); settings: TM182-AHK2Δ, examinee substance 100 μM, DOLU+Glu, 30° C. for 24 hours
T1 sequence (Q9C5U2 196-1176): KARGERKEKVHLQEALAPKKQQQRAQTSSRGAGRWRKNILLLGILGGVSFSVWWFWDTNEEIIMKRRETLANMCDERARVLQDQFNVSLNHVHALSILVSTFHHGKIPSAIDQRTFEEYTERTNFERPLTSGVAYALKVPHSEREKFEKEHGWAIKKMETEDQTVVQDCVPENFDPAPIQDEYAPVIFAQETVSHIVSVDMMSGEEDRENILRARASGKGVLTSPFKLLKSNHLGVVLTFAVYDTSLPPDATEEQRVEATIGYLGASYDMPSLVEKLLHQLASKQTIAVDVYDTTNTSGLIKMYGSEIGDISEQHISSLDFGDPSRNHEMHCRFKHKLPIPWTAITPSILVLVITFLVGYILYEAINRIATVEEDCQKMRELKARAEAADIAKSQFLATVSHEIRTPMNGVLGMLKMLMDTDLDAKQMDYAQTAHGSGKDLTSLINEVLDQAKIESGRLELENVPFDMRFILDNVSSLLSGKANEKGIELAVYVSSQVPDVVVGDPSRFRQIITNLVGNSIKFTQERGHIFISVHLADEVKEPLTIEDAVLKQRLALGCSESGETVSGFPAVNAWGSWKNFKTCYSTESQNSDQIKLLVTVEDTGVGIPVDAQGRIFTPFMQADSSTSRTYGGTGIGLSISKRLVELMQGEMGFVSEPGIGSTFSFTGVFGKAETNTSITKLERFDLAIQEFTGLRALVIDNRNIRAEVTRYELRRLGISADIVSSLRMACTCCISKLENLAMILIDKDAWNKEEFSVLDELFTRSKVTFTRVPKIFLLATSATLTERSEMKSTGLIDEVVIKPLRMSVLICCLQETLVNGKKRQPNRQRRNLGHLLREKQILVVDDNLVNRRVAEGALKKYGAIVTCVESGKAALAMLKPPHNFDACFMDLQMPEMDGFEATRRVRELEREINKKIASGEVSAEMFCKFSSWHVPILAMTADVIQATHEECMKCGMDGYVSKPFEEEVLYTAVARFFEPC
Experimental: The transformed cells TM182-AHK2, TM182-AHK2Δ and TM182-AHK3 produced in the reference example 1 were inoculated in 200 ml of DOLU+Gal culture media and pre-cultured at 30° C. for 36 hours. The pre-cultured solutions were diluted with DOLU+Glu media as to become 0.100 as the optical density (OD600) and further the resultants were diluted with DOLU+Glu media at a dilution rate of 1/200 to obtain diluted pre-cultured solutions.
An assay plate was prepared by filling respective wells of a 96-well plate with 20 μl of solutions which were prepared by diluting DMSO solution (10 mM) of each examinee substance with DOLU+Glu medium at a dilution rate of 1/100, said solutions containing each examinee substance to be […]. […]
The diluted pre-cultured solutions were added in 200 μl each into the respective wells of both assay plates and cultured at 30° C. for 24 hours and then the optical density (OD620) of each well was measured by a plate reader. The agonist-activity of the examinee substances to the cytokinin receptor was detected by comparing the optical density measured in the testing sections to which the examinee substances were added with the optical density measured in the blank sections.

[1] = test system: transformed cells TM182-CYC1-CYC1IPT4; settings: DOHLU+Glu, 30° C. for 24 hours
Experimental: (§1) Each of the transformed cells TM182-CYC1-CYC1IPT4, TM182-CYC1-ADHIPT4, TM182-CYC1-CYC1IPT5, TM182-CYC1-ADHIPT5, TM182-CRE1-CYC1IPT4, and TM182-CRE1-ADHIPT5 obtained in Example 16 was inoculated in 200 mL of DOHLU+Gal culture medium, and was pre-cultured at 30° C. for 36 hours. The thus obtained culture solutions were diluted with DOHLU+Glu culture medium so that OD600 became 0.200, and then the diluted ones were further diluted with DOHLU+Glu culture medium at a dilution rate of 1/200 to obtain diluted pre-cultured solutions.
(§2) A 96-well assay plate was prepared by filling each well with 1 μL of a DMSO solution of an examinee substance (Abscisic acid or 6-Benzyl aminopurine). In this regard, it is to be noted that the DMSO solution of a examinee substance was prepared so that the concentration thereof became 200 ppm. Simultaneously, an assay plate was prepared by filling each well with 1 μL of DMSO as a blank section.
(§3) Each of the diluted pre-cultured solutions was added in a volume of 100 μL per each well of both of the assay plates, and was cultured at 30° C. for 24 hours. After incubation, the turbidity of each well was measured using a plate reader.
as §1, with “TM182-CRE1-ADHIPT4, TM182-AHK2-CYC1IPT4, TM182-AHK2-CYC1IPT5” for “TM182-CRE1-CYC1IPT4,”, “TM182-AHK2-ADHIPT5” for “TM182-CRE1-ADHIPT5”
as §3

[2] = test system: transformed cells TM182-CYC1-ADHIPT4; settings: DOHLU+Glu, 30° C. for 24 hours
Experimental: as §1, §2, §3
as §1, with “TM182-CRE1-ADHIPT4, TM182-AHK2-CYC1IPT4, TM182-AHK2-CYC1IPT5” for “TM182-CRE1-CYC1IPT4,”, “TM182-AHK2-ADHIPT5” for “TM182-CRE1-ADHIPT5”
as §3

[3] = Table 3, TM182-CYC1-CYC1-IPT4, 1 μL of 200 ppm DMSO solution per 100 μL
[4] = Table 4, TM182-CYC1-CYC1-IPT4, 1 μL of 200 ppm DMSO solution per 100 μL
[5] = Table 3, TM182-CYC1-ADH-IPT4, 1 μL of 200 ppm DMSO solution per 100 μL
[6] = Table 4, TM182-CYC1-ADH-IPT4, 1 μL of 200 ppm DMSO solution per 100 μL

Compound	optical density (OD620) of the culture solution (cytokinin receptor AHK2Δ)	absorbance (OD600) of the culture solution [1, 3]	absorbance (OD600) of the culture solution [1, 4]	absorbance (OD600) of the culture solution [2, 5]	absorbance (OD600) of the culture solution [2, 6]
CC1=CC(=O)CC(C)(C)[C@@]1(O)/C=C/C(C)=C\C(=O)O [Compound A, Abscisic acid]	0	0.042	0.035	0.040	0.035
c1ccc(CNc2ncnc3nc[nH]c23)cc1 [Compound B, 6-Benzyl aminopurine]	0.89	0.042	0.034	0.041	0.034
